Data taken from ChEMBL document CHEMBL6083258, “Advances in synthesis of novel annulated azecines and their unique pharmacological properties” (Eur J Med Chem, 2024).

Tests used:
[1] = target: T1, Acetylcholinesterase (Homo sapiens, UniProt P22303); test: Binding affinity to AChE (unknown origin) assessed as inhibition constant
[2] = system: MCF7; test: Antiproliferative activity against human MCF7 cells assessed as reduction in cell viability incubated for 48 hrs by MTT assay; type: functional, cell-based; conditions: MCF7, 48 h
[3] = target: ATP-dependent translocase ABCB1 (Homo sapiens, UniProt P08183); test: Inhibition of p-glycoprotein (unknown origin)
[4] = system: HepG2; test: Antiproliferative activity against human HepG2 cells assessed as reduction in cell viability incubated for 48 hrs by MTT assay; type: functional, cell-based; conditions: HepG2, 48 h
[5] = target: T1, Acetylcholinesterase; test: Inhibition of human AChE using acetylthiocholine iodide as substrate after 15 mins by Ellman's method
[6] = target: T2, Amine oxidase [flavin-containing] B (Homo sapiens, UniProt P27338); test: Inhibition of MAO-B (unknown origin)
T2 sequence (P27338 whole entry): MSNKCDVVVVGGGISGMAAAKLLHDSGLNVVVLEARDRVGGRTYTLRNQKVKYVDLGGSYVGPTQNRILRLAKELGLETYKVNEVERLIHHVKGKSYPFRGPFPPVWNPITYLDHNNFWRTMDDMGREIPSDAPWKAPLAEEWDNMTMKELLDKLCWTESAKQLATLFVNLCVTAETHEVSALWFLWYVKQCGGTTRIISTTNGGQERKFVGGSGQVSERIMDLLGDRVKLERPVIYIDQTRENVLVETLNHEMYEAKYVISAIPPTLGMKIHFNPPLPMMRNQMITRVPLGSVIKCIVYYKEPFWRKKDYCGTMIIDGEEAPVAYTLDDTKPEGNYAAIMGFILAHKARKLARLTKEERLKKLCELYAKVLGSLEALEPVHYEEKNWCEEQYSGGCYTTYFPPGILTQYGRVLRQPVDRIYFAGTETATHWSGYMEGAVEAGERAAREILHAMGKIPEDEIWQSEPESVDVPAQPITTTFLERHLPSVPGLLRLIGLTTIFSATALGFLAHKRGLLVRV

T1 sequence (P22303 whole entry): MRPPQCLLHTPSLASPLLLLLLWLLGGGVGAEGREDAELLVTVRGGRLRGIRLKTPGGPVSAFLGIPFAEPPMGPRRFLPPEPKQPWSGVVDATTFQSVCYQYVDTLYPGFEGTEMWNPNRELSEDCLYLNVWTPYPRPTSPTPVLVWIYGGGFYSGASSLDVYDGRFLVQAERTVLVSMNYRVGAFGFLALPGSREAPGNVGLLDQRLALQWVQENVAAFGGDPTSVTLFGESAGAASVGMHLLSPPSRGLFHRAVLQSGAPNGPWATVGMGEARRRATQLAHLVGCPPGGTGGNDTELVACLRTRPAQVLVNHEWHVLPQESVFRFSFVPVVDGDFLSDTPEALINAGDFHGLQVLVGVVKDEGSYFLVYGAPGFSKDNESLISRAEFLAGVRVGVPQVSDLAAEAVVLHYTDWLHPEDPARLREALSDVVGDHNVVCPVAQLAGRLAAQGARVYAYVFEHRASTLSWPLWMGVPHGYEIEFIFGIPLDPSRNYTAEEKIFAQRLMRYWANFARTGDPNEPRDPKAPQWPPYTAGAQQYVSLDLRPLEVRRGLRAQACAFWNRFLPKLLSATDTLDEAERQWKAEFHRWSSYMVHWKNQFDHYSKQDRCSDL
Sequence of ATP-dependent translocase ABCB1 (P08183 whole entry): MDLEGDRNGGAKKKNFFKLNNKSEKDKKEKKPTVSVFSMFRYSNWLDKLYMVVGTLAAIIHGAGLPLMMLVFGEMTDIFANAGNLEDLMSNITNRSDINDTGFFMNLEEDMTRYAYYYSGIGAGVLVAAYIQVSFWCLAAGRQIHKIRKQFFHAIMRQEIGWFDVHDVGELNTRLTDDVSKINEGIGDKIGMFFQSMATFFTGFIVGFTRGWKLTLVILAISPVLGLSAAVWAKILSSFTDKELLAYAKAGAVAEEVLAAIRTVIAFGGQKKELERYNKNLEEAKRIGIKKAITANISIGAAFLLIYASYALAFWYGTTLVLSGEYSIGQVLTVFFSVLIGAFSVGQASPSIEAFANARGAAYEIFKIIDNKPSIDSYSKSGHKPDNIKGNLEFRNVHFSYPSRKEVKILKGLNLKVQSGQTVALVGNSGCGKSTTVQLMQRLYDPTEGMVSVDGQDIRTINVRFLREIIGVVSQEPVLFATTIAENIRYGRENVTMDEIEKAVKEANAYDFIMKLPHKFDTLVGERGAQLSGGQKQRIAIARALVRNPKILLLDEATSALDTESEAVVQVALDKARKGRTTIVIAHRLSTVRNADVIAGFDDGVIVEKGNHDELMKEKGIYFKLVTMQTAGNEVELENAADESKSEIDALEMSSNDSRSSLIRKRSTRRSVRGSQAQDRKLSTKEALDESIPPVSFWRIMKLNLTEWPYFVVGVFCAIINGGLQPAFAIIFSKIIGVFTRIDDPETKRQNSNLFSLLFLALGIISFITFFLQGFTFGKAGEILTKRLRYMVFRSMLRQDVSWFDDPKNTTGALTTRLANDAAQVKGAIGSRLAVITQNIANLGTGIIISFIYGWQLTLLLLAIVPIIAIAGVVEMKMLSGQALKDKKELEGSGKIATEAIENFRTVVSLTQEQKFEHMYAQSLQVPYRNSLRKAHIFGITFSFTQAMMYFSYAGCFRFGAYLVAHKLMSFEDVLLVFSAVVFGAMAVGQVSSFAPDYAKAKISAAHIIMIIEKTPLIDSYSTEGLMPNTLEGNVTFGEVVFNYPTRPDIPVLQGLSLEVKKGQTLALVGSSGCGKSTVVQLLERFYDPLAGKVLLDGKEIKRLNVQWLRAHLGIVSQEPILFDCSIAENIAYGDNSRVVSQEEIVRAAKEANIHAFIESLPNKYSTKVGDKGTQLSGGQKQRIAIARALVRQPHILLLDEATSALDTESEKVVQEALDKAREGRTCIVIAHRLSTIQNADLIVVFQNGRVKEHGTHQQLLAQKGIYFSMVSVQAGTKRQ

Work on `COCC1=C=C(c2ccc(OC)cc2)c2cc(OC)c(OC)cc2CCN(C)/C=C\1C(=O)OC` yielded a Ki [1] of 4.9 µM.

`COC(=O)/C1=C/N(C)CCc2cc(OC)c(OC)cc2C(c2ccc(OC)cc2)=C=C1c1ccccc1` was tested, and the IC50 [2] was > 100 µM, the IC50 [3] was 0.0042 µM and the IC50 [4] was > 100 µM.

`COC(=O)/C1=C/N(C)CCc2cc(OC)c(OC)cc2C(C)=C=C1c1ccccc1` gave an IC50 [5] of 14 µM and an IC50 [6] of 7.1 µM.
